Converted amounts (≈) assume the structure as drawn.
Columns and labels:
[1] = tested on: insulated cavy trachea (ICT); conditions: ICT contracted with hystamine (1 μM), cited from earlier work; for Emax, tension: relaxation
[2] = tested on: fibrosarcoma (line HT-1080); conditions: HT1080 fibrosarcoma cells; cited from earlier work
[3] = tested on: uterus colon carcinoma (line L5-26); conditions: L5-26 colon cells; cited from earlier work
H. pylori NTCT 11637 = conditions: strain NTCT 11637; cited from earlier work
H. pylori NTCT 11916 = conditions: strain NTCT 11916; cited from earlier work
H. pylori ATCC 43504 = conditions: strain ATCC 43504; cited from earlier work
[4] = Hepatocytes; read-out: Hepatoprotection Effect IC50 μM (Hepatocytes); cited from earlier work
[5] = cited from earlier work
Escherichia coli = test: Antibacterial activity, inhibition halos in culture; type: cell-based; conditions: Escherichia coli culture
Text: (§1) The insulated compounds DCBEN, DHCA, E and mixture of E+DPB have their antibacterial properties tested in cultures of E.coli, Pseudomonas aeruginosa, Staphylococcus aureus and Streptococcus faecalis. Inhibition halos (in mm) and the obtained data recorded as in FIG. 1.
(§2) Antibacterial activity of the compounds K, G1, G2 e L2 has been evaluated in cultures of E.coli, Pseudomonas aeruginosa, Staphylococcus aureus and Streptococcus faecalis. Inhibition halos have been measured (mm) and the data recorded as in FIG. 1. S.aureus, S.faecalis e E.coli, are sensitive to the tested compounds, just varying the halos, the compound G2 has the most toxity in cultures of S.aureus e S.faecalis. None of the tested compounds had effect in P.aeruginosa.

Pseudomonas aeruginosa = test: as above; type: cell-based
Text: as §1, §2

Staphylococcus aureus = test: as above; type: cell-based; conditions: for Antibacterial activty, inhibition halo: Staphylococcus aureus culture
Text: as §1, §2

Streptococcus faecalis = test: as above; type: cell-based; conditions: for Antibacterial activty, inhibition halo: Streptococcus faecalis culture
Text: as §1, §2

T. cruzi trypomastigotes = test: Effects against T. cruzi trypomastigotes cultures; type: cell-based, Trypanosoma cruzi
Description: FIG. 2 are recorded ID50 data related to trypomastigotes cultures (one of the growing stages of Trypanosoma cruzi (T.cruzi)) also to the compounds DCBEN, DHCA, E and mixture E+DPB and the effects of said compounds extracted from propolis trypomastigotes of T.cruzi (in mg/mL). […] The same result for Violet Crystal is 0.205 mg/mL, as previously mentioned. The results for insulated compounds are greater than the Violet Crystal.

[6] = insulated labdan acids; cited from earlier work

Compound	Antitumor activity (LD50 μg/mL) HT1080 (Fibrosarcoma) [2] [µg/mL]	Antitumor activity (LD50 μg/mL) L5-26 (Colon) [3] [µg/mL]	MIC (H. pylori mg/mL) NTCT 11637 (H. pylori NTCT 11637) [mg/mL]	MIC (H. pylori mg/mL) NTCT 11916 (H. pylori NTCT 11916) [mg/mL]	MIC (H. pylori mg/mL) ATCC 43504 (H. pylori ATCC 43504) [mg/mL]	IC50 [4] [µM]	other results
2-[1-hydroxymethyl]vinyl-6-acetyl-5-hydroxy-coumaran							Emax, tension [1]: 1.06 ± 0.09 g
CC(C)=CCc1cc(/C=C/C(=O)O)cc2c1OC(C)(C)C(O)C2 (stereo not drawn) [Compound 1]	71.53	77.07	0.13 (≈ 0.411 mM)	0.25 (≈ 0.79 mM)	0.25 (≈ 0.79 mM)		
CC(C)=CCc1cc(/C=C/C(=O)O)cc2c1OC(C)(C)C=C2 [Compound 2]	46.86	50.22	0.50 (≈ 1.68 mM)	0.50 (≈ 1.68 mM)	1.00 (≈ 3.35 mM)	88.1	
CC1(C)C=Cc2cc(/C=C/C(=O)O)ccc2O1 [Compound 3]	>100	>100	>1	>1	>1		
CC1(C)C=Cc2cc(C(=O)O)ccc2O1 [Compound 4]	>100	>100					
CC(C)=CCc1cc(/C=C/C(=O)O)cc(CC=C(C)C)c1O [Compound 5]	45.47	59.32	>1	>1	>1		Antioxidant Activity (DPPH) [5]: 5.6 µg/mL
CC(C)=CCc1cc(/C=C/C(=O)O)ccc1OC(=O)CCc1ccccc1 [Compound 6]	25.94	77.90	0.25 (≈ 0.686 mM)	0.50 (≈ 1.37 mM)	0.50 (≈ 1.37 mM)	26.9	
CC(C)=CCc1cc(/C=C/C(=O)O)ccc1O [Compound 7]	>100	>100	>1	>1	>1	34.6	
COc1cc(/C=C/C=O)ccc1O [Compound 9]	4.05	10.44	>1	>1	>1	45.8	Antioxidant Activity (DPPH) [5]: 11.1 µg/mL
C=C(C)[C@H]1Cc2cc(C(C)=O)ccc2O1 [Compound 16]	57.40	58.09					
C=C(CO)[C@H]1Cc2cc(O)c(C(C)=O)cc2O1 [Compound 17]	45.48	57.15	>1	>1	>1		
C=C(COC(C)=O)[C@H]1Cc2cc(O)c(C(C)=O)cc2O1 [Compound 18]	>100	>100	1.0 (≈ 3.62 mM)	1.0 (≈ 3.62 mM)	1.0 (≈ 3.62 mM)		
COc1ccc(-c2oc3cc(O)cc(O)c3c(=O)c2O)cc1 [Compound 22]	26.97	70.98	1.0 (≈ 3.33 mM)	1.0 (≈ 3.33 mM)	>1	22	
CC(C)=CCc1cc(/C=C/C(=O)O)cc(C/C=C(\C)COC(=O)CCc2ccccc2)c1O [Compound 24]	>100	>100	0.13 (≈ 0.29 mM)	0.25 (≈ 0.557 mM)	0.25 (≈ 0.557 mM)	15.2	Antioxidant Activity (DPPH) [5]: 12.2 µg/mL
C=C(C)C1Cc2cc(/C=C/C(=O)O)cc(CC=C(C)C)c2O1 (stereo not drawn) [Compound 25]	>100	>100	0.25 (≈ 0.838 mM)	0.13 (≈ 0.436 mM)	0.13 (≈ 0.436 mM)		Antioxidant Activity (DPPH) [5]: 15.0 µg/mL
COc1cc([C@@H]2OC=C(c3cc4cc(O)c(C(C)=O)cc4o3)C[C@H]2COC(C)=O)ccc1O [Compound 26]	13.9	12.4	>1	>1	>1	63.5	Antioxidant Activity (DPPH) [5]: 29.1 µg/mL
COc1cc([C@@H]2c3c(oc4cc(C(C)=O)c(O)cc34)C(=O)C[C@H]2COC(C)=O)ccc1O [Compound 27]	43.2	13.7	>1	>1	>1	15	Antioxidant Activity (DPPH) [5]: 30.1 µg/mL
COc1cc(C=O)ccc1O [Compound G1]							Antibacterial activty, inhibition halo (Escherichia coli): + (+ halo < or = to 8 mm); Antibacterial activty, inhibition halo (Pseudomonas aeruginosa): Ø; Antibacterial activty, inhibition halo (Staphylococcus aureus): + (+ halo < or = to 8 mm); Antibacterial activty, inhibition halo (Streptococcus faecalis): + (+ halo < or = to 8 mm)
COc1cc(C=CC=O)ccc1O [Compound G2, 3-methoxy-4-hydroxycinnamaldehyde]							Antibacterial activty, inhibition halo (Escherichia coli): + (+ halo < or = to 8 mm); Antibacterial activty, inhibition halo (Pseudomonas aeruginosa): Ø; Antibacterial effect in words (Staphylococcus aureus; S.aureus culture): most toxity; Antibacterial activty, inhibition halo (Staphylococcus aureus): ++ (++ halo > or = to 8 mm and < 12 mm); Antibacterial effect in words (Streptococcus faecalis; S.faecalis culture): most toxity; Antibacterial activty, inhibition halo (Streptococcus faecalis): ++ (++ halo > or = to 8 mm and < 12 mm)
CN(C)c1ccc(C(=C2C=CC(=[N+](C)C)C=C2)c2ccc(N(C)C)cc2)cc1.[Cl-] [Cristal violet, reference compound]							ID50/24 h (T. cruzi trypomastigotes): 0.205 mg/mL
CC1(C)C=Cc2cc(C=CC(=O)O)ccc2O1 [DCBEN, 2,2-Dimethyl-6-carboxiethenyl-2H-1-benzopyran]							Antibacterial activty, inhibition halo (Escherichia coli): + (+ halo < or = to 8 mm); Antibacterial activty, inhibition halo (Pseudomonas aeruginosa): Ø; Antibacterial activty, inhibition halo (Staphylococcus aureus): ++ (++ halo > or = to 8 mm and < 12 mm); Antibacterial activty, inhibition halo (Streptococcus faecalis): ++ (++ halo > or = to 8 mm and < 12 mm); ID50/24 h (T. cruzi trypomastigotes): 1.696 ± 0.032 mg/mL (≈ 7.37 mM); EC50 ([1]; read-out: CE50 (the source's name)): 250 nM; Emax, tension [1]: 0.80 ± 0.05 g
CC(C)=CCc1cc(C=CC(=O)O)cc2c1OC(C)(C)C=C2 [E]							Antibacterial activty, inhibition halo (Escherichia coli): + (+ halo < or = to 8 mm); Antibacterial activty, inhibition halo (Pseudomonas aeruginosa): Ø; Antibacterial activty, inhibition halo (Staphylococcus aureus): + (+ halo < or = to 8 mm); Antibacterial activty, inhibition halo (Streptococcus faecalis): + (+ halo < or = to 8 mm)
CC(C)=CCc1cc(C=CC(=O)O)ccc1O [PHCA, 3-prenyl-4-hydroxycinnamic acid]							Emax, tension [1]: 1.258 ± 84 g
C=C1CC[C@@H]2[C@](C)(CCC[C@]2(C)C(=O)O)[C@H]1CC/C(C)=C/CO [[b], isocupressic acid]							Antibacterial activity by bioautography [6]: most active
C=C1CC[C@@H]2[C@](C)(CCC[C@]2(C)C(=O)O)[C@H]1CC[C@H](C)CCO [[d], imbricatoloic acid]							Antibacterial activity by bioautography [6]: most active

From patent US20040126437A1, “Typing natural products” (priority 2000, published 2004)
